Patent US20080312164A1 (priority 2006, published 2008)
Read-outs that look alike come from different tables or passages of the source. Marks after values point to notes of the source that are not given here.

Legend:
[1] = system: HCT-116 cells; details: literature (27, 35); cited from earlier work
[2] = system: several cell lines; details: reported; cited from earlier work
[3] = system: SK-OV-3 cells; experiment: Calcein AM cytotoxicity assay, SK-OV-3; type: cell-based; details: Homo sapiens; SK-OV-3, Calcein AM, 72 h; read-out: IC50
From the text: (§1) Five serial 1:2 dilutions were made with anhydrous DMSO at 100× the final concentration used in the assay.

[4] = system: NmuMG mouse mammary normal epithelial cells; experiment: Calcein AM cytotoxicity assay, NmuMG; type: cell-based; details: Epithelial cell, NmuMG, Calcein AM, 72 h, read-out: IC50
From the text: as §1

[5] = system: Hep3B cells; experiment: Calcein AM cytotoxicity assay, Hep3B; type: cell-based; details: Homo sapiens, Calcein AM, 72 h, read-out: IC50
From the text: as §1

[6] = system: NCI-H460 cells; experiment: Calcein AM cytotoxicity assay, NCI-H460; type: cell-based; details: Homo sapiens; NCI-H460, Calcein AM, 72 h; read-out: IC50
From the text: as §1

[7] = system: Du145 cells; experiment: Cell Titer-Glo cytotoxicity assay, Du145; type: cell-based; details: Homo sapiens, DU-145; Du145, Cell Titer-Glo, 72 h; read-out: IC50
From the text: as §1

[8] = system: SF-268 cells; experiment: Calcein AM cytotoxicity assay, SF-268; type: cell-based; details: Homo sapiens; SF-268, Calcein AM, 72 h; read-out: IC50
From the text: as §1

[9] = system: NmuMG Cell Line; experiment: Cytotoxicity in NmuMG cell line, summary table (assay not stated); type: cell-based; details: Mus musculus, assay not stated (mostly Cell Titer-Glo values; Calcein AM values for 20, 24, 39)
From the text: as §1

[10] = system: Hep3B cells; experiment: Cell Titer-Glo cytotoxicity assay, Hep3B; type: cell-based; details: Homo sapiens, Cell Titer-Glo, 72 h, read-out: IC50
From the text: as §1

[11] = system: HCT-116 cells; experiment: Calcein AM cytotoxicity assay, HCT-116; type: cell-based; details: Homo sapiens; HCT-116, Calcein AM, 72 h; read-out: IC50
From the text: as §1

[12] = system: human cancer cell lines; experiment: Cytotoxicity across the panel of human cancer cell lines (average, high-throughput assays); type: cell-based; details: for Cancerous Average IC50 / Average IC50 in Cancer Cell Lines / IC50: average across eight human cancer cell lines, MTT (HT-29) values excluded; for IC50: read-out: Cancerous Average IC50 / Average IC50 in Cancer Cell Lines
From the text: as §1

[13] = system: MCF7 cells; experiment: Calcein AM cytotoxicity assay, MCF7; type: cell-based; details: Homo sapiens; MCF7, Calcein AM, 72 h; read-out: IC50
From the text: as §1

[14] = system: SF-268 cells; experiment: Cell Titer-Glo cytotoxicity assay, SF-268; type: cell-based; details: Homo sapiens; SF-268, Cell Titer-Glo, 72 h; read-out: IC50
From the text: as §1

[15] = system: NmuMG mouse mammary normal epithelial cells; experiment: Cell Titer-Glo cytotoxicity assay, NmuMG; type: cell-based; details: Mus musculus, Epithelial cell; NmuMG, Cell Titer-Glo, 72 h; read-out: IC50
From the text: as §1

[16] = system: MCF7 cells; experiment: Cell Titer-Glo cytotoxicity assay, MCF7; type: cell-based, human; details: Homo sapiens; MCF7, Cell Titer-Glo, 72 h; read-out: IC50
From the text: as §1

[17] = system: SK-OV-3 cells; experiment: Cell Titer-Glo cytotoxicity assay, SK-OV-3; type: cell-based; details: Homo sapiens; SK-OV-3, Cell Titer-Glo, 72 h; read-out: IC50
From the text: as §1

[18] = system: NCI/ADR RES cells; experiment: Calcein AM cytotoxicity assay, NCI/ADR-RES; type: cell-based; details: Homo sapiens, Calcein AM, 72 h, read-out: IC50
From the text: as §1

[19] = system: NCI/ADR RES cells; experiment: Cell Titer-Glo cytotoxicity assay, NCI/ADR-RES; type: cell-based, human; details: Homo sapiens; NCI/ADR-RES, Cell Titer-Glo, 72 h; read-out: IC50
From the text: as §1

[20] = system: Du145 cells; experiment: Calcein AM cytotoxicity assay, Du145; type: cell-based; details: Homo sapiens, DU-145; Du145, Calcein AM, 72 h; read-out: IC50
From the text: as §1

[21] = system: HCT-116 cells; experiment: Cell Titer-Glo cytotoxicity assay, HCT-116; type: cell-based; details: Homo sapiens; HCT-116, Cell Titer-Glo, 72 h; read-out: IC50
From the text: as §1

[22] = system: HT-29 cells; experiment: MTT cytotoxicity assay, HT-29; type: cell-based; details: Homo sapiens; HT-29, MTT, 24 h; read-out: IC50
From the text: The IC50 value for each library member represents at least twelve replicates of dose-response experiments conducted over five concentrations. […] In this assay, live cells were distinguished by the intracellular enzymatic activity that converts the cell-permeable molecule MTT to strongly colored formazan crystals, which are retained within live cells and absorb light at 570 nm.
MTT Cytotoxicity Assay. HT-29 cell lines were maintained in RPMI medium 1640 supplemented with 10% (wt/vol) FBS and 1% penicillin-streptomycin (PS) (100 units/mL and 100 μg/mL). Cells were harvested by trypsinization using 0.25% trypsin and 0.1% EDTA and plated at a density of 2,000-5,000 cells per well of each 96-well microtiter plate. Cells were grown for 24 h at 37° C., with 5% CO2/95% air in a humidified incubator to allow cell attachment to occur before compound addition. Library members were stored at −20° C. under desiccating conditions before the assay. Library member stocks (1000×) were prepared in falcon tubes (BD Biosciences). Five dilutions were made with DMSO at 1000× the final concentration used in the assay. The 1000× stocks (3 μL) were diluted with complete culture medium (3 mL). Each plate contained twelve replicates of cells treated with 0.1% DMSO in complete cell culture medium that served as an individual negative control. Library member stocks (1×, 200 μL) were added to aspirated cells and replicated twelve times on each plate. Cells were incubated with the library members for 24 h before optical density reading. Test plates were removed from the incubator and washed once in sterile PBS to remove serum containing library members. Freshly-made 10×MTT solution in sterile PBS (5 mg/mL) was diluted 1:10 in serum-free culture medium and was sterilized using a 0.2 μm filter. Diluted MTT solution (1×, 50 μL) was added to each well and the plates were incubated in the dark for 2 h. Test plates were centrifuged at 1800×g for 5 min at 4° C. using a Beckman GPR centrifuge. MTT solution was removed by aspiration and 100 μL DMSO was added to each well to lyse cells and solubilize formazan crystals. Test plates were incubated in the dark at room temperature for 10 min. Plates were read for optical density at 570 nm.
IC50 Calculations. For each library member, at least three dose-response experiments were conducted on separate plates. […] To calculate IC50, percent inhibitions were plotted as a function of log[concentration] and then fit to a four-parameter logistic model that allowed for a variable Hill slope by using XLFIT 4.1 (ID Business Solutions, Emeryville, Calif.).

[23] = system: NCI-H460 cells; experiment: Cell Titer-Glo cytotoxicity assay, NCI-H460; type: cell-based, human; details: Homo sapiens; NCI-H460, Cell Titer-Glo, 72 h; read-out: IC50
From the text: as §1

SMILES	IC50 [3]	IC50 [4]	IC50 [5]	IC50 [6]	IC50 [7]	IC50 [8]	IC50 [9]	IC50 [10]	IC50 [11]	IC50 [12]	IC50 [13]	IC50 [14]	IC50 [15]	IC50 [16]	IC50 [17]	IC50 [18]	IC50 [19]	IC50 [20]	IC50 [21]	IC50 [22]	other results
O=C(CCCCCCC(=O)Nc1cccnc1)NO [Compound 7, pyroxamide]	–	–	–	–	–	–	–	–	–	–	–	–	–	–	–	–	–	–	–	–	IC50 [1]: 6.5 ± 0.5 µM; IC50 [2]: 1 to 20 µM
S=C=NC1CC1 [Compound 17, isothiocyanatocyclopropane]	> 30 µM	> 200 µM	> 30 µM	> 50 µM	> 50 µM	> 50 µM	> 200 µM	> 30 µM	> 50 µM	> 50 µM	15.1 µM	> 50 µM	> 200 µM	12.6 µM	> 50 µM	> 50 µM	> 50 µM	29.7 µM	> 50 µM	> 50 µM	Cancerous Average IC50 / Average IC50 in Cancer Cell Lines [12]: >50.00^c μM; IC50 [23]: > 50 µM
S=C=Nc1ccccc1 [Compound 19, 1-isothiocyanatobenzene]	> 50 µM	> 200 µM	> 50 µM	> 50 µM	> 50 µM	2.32 µM	> 200 µM	> 20 µM	> 20 µM	>50.00 µM	> 50 µM	> 50 µM	> 200 µM	> 50 µM	> 50 µM	> 20 µM	> 20 µM	> 50 µM	> 20 µM	> 50 µM	IC50 [23]: > 20 µM
S=C=Nc1ccc(Br)cc1 [Compound 20, 1-bromo-4-isothiocyanatobenzene]	> 50 µM	183 µM	> 50 µM	> 50 µM	41.4 µM	> 50 µM	183 µM	> 50 µM	> 50 µM	> 50 µM	26.7 µM	24.9 µM	21.4 µM	17.1 µM	19.6 µM	> 50 µM	23.1 µM	> 50 µM	21.6 µM	> 50 µM	Cancerous Average IC50 / Average IC50 in Cancer Cell Lines [12]: >50.00^e μM; IC50 [23]: 10.4 µM
S=C=NCc1ccco1 [Compound 24, 2-(isothiocyanatomethyl)furan]	> 30 µM	151 µM	> 30 µM	> 50 µM	> 50 µM	> 50 µM	151 µM	> 30 µM	> 50 µM	> 50 µM	> 50 µM	> 50 µM	> 200 µM	> 50 µM	> 50 µM	21.6 µM	> 50 µM	> 50 µM	> 50 µM	> 50 µM	IC50 [23]: > 50 µM
S=C=NCc1ccccc1-c1ccccc1 [Compound 33, 1-(isothiocyanatomethyl)-2-phenylbenzene]	5.93 µM	< 12.5 µM	10.6 µM	6.44 µM	5.25 µM	4.79 µM	180 µM	4.24 µM	5.56 µM	4.96 µM	1.6 µM	6.39 µM	80.1 µM	3.63 µM	5.01 µM	4.12 µM	4.11 µM	3.16 µM	4.64 µM	39.9 µM	selectivity for cancer cells over NmuMG cells ([12]; IC50 in NmuMG versus average IC50 in cancer cell lines): 36.3 fold; further fold increase in potency from multiple phenyl rings ([12]; average IC50 compared with single-ring 23 and 38): ~2 fold; IC50 [23]: 8.95 µM
Cc1c(N=C=S)c(=O)n(-c2ccccc2)n1C [Compound 37, 4-isothiocyanato-2,3-dimethyl-1-phenyl-1,2-dihydropyrazol-5-one]	> 50 µM	> 200 µM	> 50 µM	> 50 µM	> 50 µM	> 50 µM	> 200 µM	> 50 µM	> 50 µM	> 50 µM	> 50 µM	> 50 µM	> 200 µM	> 50 µM	> 50 µM	> 50 µM	> 50 µM	> 50 µM	> 50 µM	> 50 µM	IC50 [23]: > 50 µM
S=C=NCCC1=CCCCC1 [Compound 39, 1-(2-isothiocyanatoethyl)cyclohex-1-ene]	19.5 µM	13 µM	28.5 µM	28.6 µM	18.6 µM	3.89 µM	13 µM	16.1 µM	19 µM	18.3 µM	27.5 µM	13.6 µM	> 200 µM	19.8 µM	24.1 µM	12.2 µM	26.9 µM	25.5 µM	16.4 µM	45.3 µM	IC50 [23]: 36.4 µM
